According to patent US20220184037A1, “PHARMACEUTICAL AGENTS TARGETING CANCER STEM CELLS” (THE JOHNS HOPKINS UNIVERSITY, priority 2020, published 2022):

Legend:
Type in all cases: cell-based, human
[1] = tested on: AKT and extracellular signal-related kinase (ERK); assay: Western blotting of AKT and ERK activation; details: basal-type cells, erlotinib
Protocol: Whole cell lysates were extracted using RIPA buffer (Thermo Scientific) supplemented with 10 μL/mL Halt™ Protease Inhibitor Cocktail Kit (Life Technologies) and 30 μL/mL Halt™ Phosphatase Inhibitor Cocktail Kit (Life Technologies). The protein concentrations were determined using a Pierce™ BCA Protein Assay Kit (Life Technologies), and the protein were separated on. NuPAGE 4-12% Bis-Tris Gel (Life Technologies) according to the manufacturer's protocol. COX2 (D5H5), NANOG (D73G4), OCT4 (D7O5Z), CD133 (A3G6K), Snail (C15D3), ZEBI (D80D3), Vimentin (D21H3), CDH2 (D4R1H), CDH1 (24E10), p-EGFR (D7A5), EGFR (D38B1), p-AKT (D9E), AKT (cat #, 9272), p-ERK (D13.14.4E), ERK (137F5), p-YAP1 (D9W2I), p-Src (cat #, 2101), Src (36D10), DNMT1 (D63A6), DNMT3A (D23G1), and DNMT3B (D7070) antibodies were obtained from Cell Signaling Technology (Danvers, Mass., USA), except for SOX2 (EPR3131; Abeam, Cambridge, USA), YAP1 (ab52771; Abeam), CD24 (cat #, AF5247-SP; R&D Systems, Minneapolis USA) and β-actin (A2228; Sigma-Aldrich). Secondary horseradish peroxidase (HRP)-conjugated antibodies were obtained from Cell Signaling Technology, and chemiluminescent detection of HRP-labeled antibodies was performed using Amersham ECL Prime Western Blotting Detection Reagent (GE Healthcare, Piscataway, USA). As loading control, β-actin was used.

[2] = tested on: basal-type bladder cancer cell lines; assay: MTT assay, sensitivity to erlotinib (IC50); details: 72 hours
Protocol: (§1) Embryonic kidney cell line 293, SV-40 immortalized normal human urothelial cell line (HUC1), and bladder cancer cell lines 5637, FIT-1376, J82, SCaBER, RT-4, T24, and UM-UC3 were obtained from American. Type Culture Collection (ATCC; Manassas, Va., USA). Mediums were purchased from Mediatech (Manassas, USA) and supplemented with 10% FBS (Hyclone, Logan, USA) under a 5% CO2 atmosphere at 95% relative humidity. HUC-1, T24, and 5637 cells were grown in F-12K, McCoy's 5A, and RPMI 1640 medium, respectively, and all other cells were grown Dulbecco's modified Eagle medium (DMEM). BFTC 905 and BFTC 909 cell lines were established from arsenic-exposed urothelial carcinoma subjects (9) and obtained from the German Collection of Microorganisms and Cell Cultures (Braunschweig, Germany). Re-authentification of cells was performed using PowerPlex 16 HS for short tandem repeats analysis at Genetic resource core facility, the Johns Hopkins University School of Medicine, Institute of Genetic Medicine, and all cell lines have been confirmed as authentic. To prepare in vitro arsenic model, we chronically exposed HUC1 cells to 1 μM arsenic trioxide, as described previously (10) and arsenic-exposed (As) cells and passage-matched arsenic un-exposed control (UE) cells were stock for each months until 12 months. […]
(§2) The cell proliferative and viability activity were measured using the 3-(4,5-dimethyl thiazol-2-yl)-2,5-diphenyltetrazolium bromide (MTT) Proliferation Assay Kit (ATCC; Manassas, Va., USA) according to the manufacturer's protocol. […] Spectrophotometric readings (570 nm-650 nm) were obtained on a Spectra Max 250 96-well plate reader (Molecular devices, Sunnyvale, USA). […] Cell viability was expressed as the ratio of absorbance values of the treated cells related to the untreated control cells considered as 1.0. The half maximal (50%) inhibitory concentration (IC50) value of drug was calculated by treatment with the various concentration for 72 hours using MTT assay. […]

[3] = tested on: BFTC 905 cells; assay: MTT assay, sensitivity to erlotinib (IC50); details: BFTC 905 cells harboring an NRAS mutation, 72 hours
Protocol: as §1, §2

[4] = tested on: arsenic exposed (As)-HUC1 cells; assay: MTT assay, sensitivity to erlotinib (IC50); details: 72 hours (FIG. 1H)
Protocol: as §1, §2

C#Cc1cccc(Nc2ncnc3cc(OCCOC)c(OCCOC)cc23)c1 [erlotinib, Erlotinib] was tested, and the “activation of AKT and ERK” value [1] was “suppressed activation”, the “sensitivity to the EGFR inhibitor erlotinib” value [2] was “sensitive” and the “sensitivity to the EGFR inhibitor erlotinib” value [3] was “resistance”. For the same molecule, the “sensitivity to the EGFR inhibitor erlotinib” value [4] was “sensitive”.
